Values quoted from earlier work, collected in patent US20140328890A1, “Silver Iodate Compounds Having Antimicrobial Properties” (priority 2010, published 2014).

Conditions: published literature

For `[Ag+].[Ag+].[Ag+].[Ag+].[Ag+].[O-][I+]([O-])([O-])([O-])([O-])[O-]` [Ag5IO6, pentasilver hexaoxoiodate], the “sensitivity to light and air” value is listed as “insensitive to light and air”.
